From ChEMBL document CHEMBL5614414, “Discovery of novel arylpyridine derivatives for motile ciliogenesis” (Eur J Med Chem, 2024) come the findings set out here.

The species named for series [1] is Danio rerio. In words: Ex vivo activation of Foxj1-mediated motile ciliogenesis pathway in Tg(foxj1a:eGFP)hsc16 zebrafish TL embryo assessed as EGFP expression in spinal ependymal cells at 5 uM incubated for 24 hrs by fluorescent stereomicroscope analysis. The format is functional, cell-based.
Series [2] is filed under the species Danio rerio. In words: Ex vivo activation of Foxj1-mediated motile ciliogenesis pathway in Tg(foxj1a:eGFP)hsc16 zebrafish TL embryo assessed as EGFP expression in spinal ependymal cells at 2.5 uM incubated for 24 hrs by fluorescent stereomicroscope analysis. The format is functional, cell-based.
Series [3] in a line: Cytotoxicity against mouse L929 cells. The format is toxicity, cell-based.
The nature of series [4]: Half life in male mouse at 5 mg/kg, po. The format is ADME, organism-based. To be noted: in vivo.
Series [5] in a line: Cytotoxicity against mouse NIH3T3 cells. The format is toxicity, cell-based.
The nature of series [6]: AUCt in male mouse at 5 mg/kg, po. The format is ADME, organism-based. To be noted: in vivo.
A short description of series [7]: AUCinfinity in male mouse at 5 mg/kg, po. The format is ADME, organism-based. The note with it: in vivo.
Series [8] in a line: Cytotoxicity against African green monkey Vero cells. The format is toxicity, cell-based, Chlorocebus sabaeus.
The target in the next series is hERG (Homo sapiens, UniProt Q12809). In words: Inhibition of hERG at 10 uM relative to control. The format is toxicity.
For series [9], the system named is Mus musculus. Briefly: Restoration of motile cilia in porcine pancreatic elastase-induced COPD C57BL/6 mouse model assessed as increase in motile cilia in trachea at 2 mg/kg, ip administered every other day for 2 weeks and measured 24 hrs post last dose by DAPI staining based confocal microscopic analysis. The format is functional, organism-based.
Series [10] in a line: Metabolic stability in rat liver microsomes assessed as compound remaining incubated for 30 mins. The format is ADME, Microsome. To be noted: read-out: Stability.
A further series has as its target Cytochrome P450 2C19 (Homo sapiens, UniProt P33261). Briefly: Inhibition of human CYP2C19 using amitriptyline as substrate relative to control. The format is ADME.
Series [11] can be described thus: AUCinfinity in male mouse at 1 mg/kg, iv. The format is ADME, organism-based. To be noted: in vivo.
Series [12] in a line: AUCt in male mouse at 1 mg/kg, iv. The format is ADME, organism-based. The note with it: in vivo.
A further series deals with Cytochrome P450 2D6 (Homo sapiens, UniProt P10635). Briefly: Inhibition of human CYP2D6 using quinidine as […] relative to control. The format is ADME.
Series [13] is described as follows: Cmax in male mouse at 5 mg/kg, po. The format is ADME, organism-based. The note with it: in vivo.
In another series the target is Cytochrome P450 2C9 (Homo sapiens, UniProt P11712). Briefly: Inhibition of human CYP2C9 using sulfaphenazole as […] relative to control. The format is ADME.
Another series relates to mTEC. Briefly: Ex vivo activation of Foxj1-mediated motile ciliogenesis pathway in wild type C57BL/6 mTEC (mouse tracheal epithelial cells) assessed as increase in multiciliated cells at 5 uM administered for 4 days starting from airlift interface day 0 with replacement of fresh media for every two days by DAPI staining based confocal laser microscopic analysis. The format is functional, cell-based. To be noted: time 4.0 day.

A short description of series [14]: Tmax in male mouse at 5 mg/kg, po. The format is ADME, organism-based. To be noted: in vivo.
The target of another series is T1, Cytochrome P450 1A2 (Homo sapiens, UniProt P05177).
T1 sequence (P05177 whole entry): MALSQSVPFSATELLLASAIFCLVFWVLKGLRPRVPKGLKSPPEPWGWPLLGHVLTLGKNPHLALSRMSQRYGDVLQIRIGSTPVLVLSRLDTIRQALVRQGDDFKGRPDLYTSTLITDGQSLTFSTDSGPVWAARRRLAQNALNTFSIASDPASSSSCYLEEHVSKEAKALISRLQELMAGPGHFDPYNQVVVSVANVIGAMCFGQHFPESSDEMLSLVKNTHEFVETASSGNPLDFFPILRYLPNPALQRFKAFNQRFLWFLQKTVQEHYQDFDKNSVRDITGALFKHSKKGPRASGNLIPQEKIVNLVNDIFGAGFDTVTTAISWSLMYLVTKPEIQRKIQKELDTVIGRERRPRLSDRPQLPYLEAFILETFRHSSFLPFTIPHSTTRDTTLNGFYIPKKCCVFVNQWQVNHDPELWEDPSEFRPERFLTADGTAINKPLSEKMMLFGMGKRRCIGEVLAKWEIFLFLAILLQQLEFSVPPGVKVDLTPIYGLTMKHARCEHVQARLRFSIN
Briefly: Inhibition of human CYP1A2 using alpha-naphthoflavone as […] relative to control. The format is ADME.

A short description of series [15]: Metabolic stability in mouse liver microsomes assessed as compound remaining incubated for 30 mins. The note with it: read-out: Stability. The format is ADME, Microsome.
Series [16] is described as follows: Cytotoxicity against CHO-K1 cells. To be noted: Chinese hamster. The format is toxicity, cell-based, Cricetulus griseus.
Series [17] is described as follows: Cytotoxicity against human HFL1 cells. The format is toxicity, cell-based.
The nature of series [18]: Half life in male mouse at 1 mg/kg, iv. The note with it: in vivo. The format is ADME, organism-based.
Series [19] can be described thus: Volume of distribution at steady state in male mouse at 1 mg/kg, iv. The format is ADME, organism-based. The note with it: in vivo, read-out: Vdss.
For the next series, the target named is Cytochrome P450 3A4 (Homo sapiens, UniProt P08684). Briefly: Inhibition of human CYP3A4 using ketoconazole as […] relative to control. The format is ADME.
In series [20] the test system is Mus musculus. In words: Restoration of motile cilia in porcine pancreatic elastase-induced COPD C57BL/6 mouse model assessed as decrease in airway damage in trachea at 2 mg/kg, ip administered every other day for 2 weeks and measured 24 hrs post last dose by DAPI staining based confocal microscopic analysis. The format is functional, organism-based.
Series [21] is described as follows: Metabolic stability in human liver microsomes assessed as compound remaining incubated for 30 mins. The format is ADME, Microsome. To be noted: read-out: Stability.
The nature of series [22]: Clearance in male mouse at 1 mg/kg, iv. The format is ADME, organism-based. The note with it: in vivo.
Series [23] is described as follows: Oral bioavailability in male mouse at 5 mg/kg. The format is ADME, organism-based. To be noted: in vivo.

Structures are written as SMILES. Activity calls are given as the source filed them. The rule behind the calls is not given here.

Cytochrome P450 3A4, sequence (P08684 whole entry): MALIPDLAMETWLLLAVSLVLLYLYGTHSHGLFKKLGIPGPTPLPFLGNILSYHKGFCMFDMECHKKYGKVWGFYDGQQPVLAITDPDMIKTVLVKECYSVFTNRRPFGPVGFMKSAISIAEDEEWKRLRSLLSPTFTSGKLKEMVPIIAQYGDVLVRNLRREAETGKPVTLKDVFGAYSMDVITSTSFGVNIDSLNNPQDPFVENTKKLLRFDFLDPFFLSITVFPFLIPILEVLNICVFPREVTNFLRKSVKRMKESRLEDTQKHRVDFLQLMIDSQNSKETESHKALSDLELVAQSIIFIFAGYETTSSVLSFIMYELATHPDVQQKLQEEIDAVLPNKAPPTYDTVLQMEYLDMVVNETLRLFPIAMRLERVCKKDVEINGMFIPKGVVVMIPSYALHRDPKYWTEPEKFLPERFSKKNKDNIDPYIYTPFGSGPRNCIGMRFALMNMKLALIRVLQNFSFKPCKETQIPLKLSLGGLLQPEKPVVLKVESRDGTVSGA
Cytochrome P450 2D6, sequence (P10635 whole entry): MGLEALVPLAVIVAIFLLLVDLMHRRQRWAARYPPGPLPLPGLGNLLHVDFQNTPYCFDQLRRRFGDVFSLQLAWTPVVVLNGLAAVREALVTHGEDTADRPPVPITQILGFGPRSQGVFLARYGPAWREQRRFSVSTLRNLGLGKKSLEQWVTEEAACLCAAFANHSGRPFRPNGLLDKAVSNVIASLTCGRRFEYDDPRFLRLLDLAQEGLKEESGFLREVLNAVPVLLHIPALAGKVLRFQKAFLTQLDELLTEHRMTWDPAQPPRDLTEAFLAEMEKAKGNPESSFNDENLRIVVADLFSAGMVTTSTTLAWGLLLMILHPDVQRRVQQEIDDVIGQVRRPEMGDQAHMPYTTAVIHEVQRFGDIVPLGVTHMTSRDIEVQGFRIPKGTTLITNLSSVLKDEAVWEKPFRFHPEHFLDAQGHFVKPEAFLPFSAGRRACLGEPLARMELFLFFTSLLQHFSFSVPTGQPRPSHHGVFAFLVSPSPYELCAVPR
Cytochrome P450 2C19, sequence (P33261 whole entry): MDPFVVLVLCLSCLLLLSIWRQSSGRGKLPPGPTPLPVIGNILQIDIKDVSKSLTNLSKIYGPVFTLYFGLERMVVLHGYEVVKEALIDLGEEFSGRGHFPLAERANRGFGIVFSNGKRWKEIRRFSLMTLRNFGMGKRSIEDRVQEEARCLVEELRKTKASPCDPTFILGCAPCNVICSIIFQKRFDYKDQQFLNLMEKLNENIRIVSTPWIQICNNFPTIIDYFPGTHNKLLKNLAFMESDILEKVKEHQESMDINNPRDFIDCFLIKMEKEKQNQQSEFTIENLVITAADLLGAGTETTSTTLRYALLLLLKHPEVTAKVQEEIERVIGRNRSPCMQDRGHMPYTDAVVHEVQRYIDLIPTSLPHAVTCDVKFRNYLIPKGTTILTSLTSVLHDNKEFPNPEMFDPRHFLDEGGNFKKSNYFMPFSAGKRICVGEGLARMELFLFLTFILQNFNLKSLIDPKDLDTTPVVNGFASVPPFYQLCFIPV
hERG, sequence (Q12809 whole entry): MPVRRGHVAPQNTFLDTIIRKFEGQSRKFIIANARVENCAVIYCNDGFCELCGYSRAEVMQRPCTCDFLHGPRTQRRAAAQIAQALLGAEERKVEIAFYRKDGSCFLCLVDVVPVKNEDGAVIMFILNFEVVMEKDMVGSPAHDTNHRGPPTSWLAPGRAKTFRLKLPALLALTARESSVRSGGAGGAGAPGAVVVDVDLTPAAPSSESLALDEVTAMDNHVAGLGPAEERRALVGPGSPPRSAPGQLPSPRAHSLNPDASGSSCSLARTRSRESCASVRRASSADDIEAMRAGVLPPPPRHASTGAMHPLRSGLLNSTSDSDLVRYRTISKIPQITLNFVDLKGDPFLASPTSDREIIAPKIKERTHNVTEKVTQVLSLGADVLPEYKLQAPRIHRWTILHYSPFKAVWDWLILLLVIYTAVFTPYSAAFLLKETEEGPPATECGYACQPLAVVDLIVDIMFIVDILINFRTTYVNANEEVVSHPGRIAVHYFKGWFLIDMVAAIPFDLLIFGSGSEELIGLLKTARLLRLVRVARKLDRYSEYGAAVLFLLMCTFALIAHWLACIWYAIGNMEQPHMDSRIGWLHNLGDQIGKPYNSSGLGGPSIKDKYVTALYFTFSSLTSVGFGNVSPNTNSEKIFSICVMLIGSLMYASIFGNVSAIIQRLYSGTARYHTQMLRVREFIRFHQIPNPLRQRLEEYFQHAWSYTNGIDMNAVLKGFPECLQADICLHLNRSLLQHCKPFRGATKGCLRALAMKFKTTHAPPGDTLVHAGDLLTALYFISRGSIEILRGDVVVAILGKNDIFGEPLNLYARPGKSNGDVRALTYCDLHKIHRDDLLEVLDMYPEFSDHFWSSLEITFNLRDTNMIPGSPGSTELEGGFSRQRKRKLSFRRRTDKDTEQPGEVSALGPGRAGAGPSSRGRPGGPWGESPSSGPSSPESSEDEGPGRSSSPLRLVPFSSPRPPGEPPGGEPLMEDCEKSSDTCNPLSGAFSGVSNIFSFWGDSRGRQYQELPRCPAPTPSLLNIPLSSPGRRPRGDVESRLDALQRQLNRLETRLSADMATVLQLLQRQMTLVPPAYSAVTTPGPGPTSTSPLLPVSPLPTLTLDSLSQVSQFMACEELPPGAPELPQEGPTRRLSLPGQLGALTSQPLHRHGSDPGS
Cytochrome P450 2C9, sequence (P11712 whole entry): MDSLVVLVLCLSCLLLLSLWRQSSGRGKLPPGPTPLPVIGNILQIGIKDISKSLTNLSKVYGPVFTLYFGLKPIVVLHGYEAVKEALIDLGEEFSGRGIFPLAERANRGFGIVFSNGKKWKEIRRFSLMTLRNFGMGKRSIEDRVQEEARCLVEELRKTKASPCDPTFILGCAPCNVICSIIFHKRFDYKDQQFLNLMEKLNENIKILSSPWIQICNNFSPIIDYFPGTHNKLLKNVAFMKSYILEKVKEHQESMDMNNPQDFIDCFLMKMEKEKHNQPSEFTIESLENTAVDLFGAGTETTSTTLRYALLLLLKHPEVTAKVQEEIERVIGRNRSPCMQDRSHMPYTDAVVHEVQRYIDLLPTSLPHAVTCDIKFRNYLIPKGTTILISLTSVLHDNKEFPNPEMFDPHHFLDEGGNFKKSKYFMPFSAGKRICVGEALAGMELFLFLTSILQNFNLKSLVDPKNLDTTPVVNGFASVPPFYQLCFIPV

Consider `CC(C)(C)Nc1ncc(-c2cnn(C(C)(C)CC(=O)O)c2)cc1-c1nc2ccccc2[nH]1`, for which, in the series filed under Danio rerio [1], the outcome was Active.
Turning to `CC(C)(C)Nc1ncc(-c2cccnc2)cc1-c1nc2ccccc2o1`, the result in the series listed under Danio rerio [1] was Active.
For the compound `CC(C)(C)Nc1ncc(-c2cccc(N)c2)cc1-c1nc2ccccc2o1`, the outcome in the series listed under Danio rerio [1] was Active.
For `Nc1cccc(-c2cnc(N3CCNCC3)c(-c3nc4ccccc4o3)c2)c1`, the result in the series filed under Danio rerio [1] was Active.
Still for that read-out and setting: the same measure for `CC(C)(C)Nc1ncc(-c2cn[nH]c2)cc1-c1nc2ccccc2o1`: “Active”.
As to `CCCCNc1ncc(-c2cccc(N)c2)cc1-c1nc2ccccc2o1`, in the series listed under Danio rerio [1], the result was Active.
As to `Nc1cccc(-c2cnc(N3CCOCC3)c(-c3nc4ccccc4o3)c2)c1`, the outcome in the series filed under Danio rerio [1] was Active.
Still for that read-out and setting: the same measure for `CC(C)(C)Nc1ncc(-c2ccccc2)cc1-c1nc2ccccc2o1`: “Active”; for `CN1CCN(c2ncc(-c3cccc(N)c3)cc2-c2nc3ccccc3o2)CC1`: “Active”.
For the compound `CNc1ncc(-c2cccc(N)c2)cc1-c1nc2ccccc2o1`, the outcome in the series filed under Danio rerio [1] was Active.
With `CC(CC(=O)O)n1cc(-c2cnc(NC(C)(C)C)c(-c3nc4ccccc4o3)c2)cn1` (configuration not stated), the result in the series listed under Danio rerio [2] was Active.
For `CC(C)(C)Nc1ncc(-c2cnn(C(C)(C)CC(=O)O)c2)cc1-c1nc2ccccc2o1`, the IC50 in series [3], in series [5], in series [8], in [16] and in [17] was above 100 µM each time. In addition, the half-life is 3.55 h in series [4] and 3.51 h in series [18]. Besides, the outcome in the series listed under Danio rerio [2], in the series with Mus musculus [9], in the series listed under Danio rerio [1], in the series on mTEC and with Mus musculus [20] was Active. In addition, the AUC(0-t) in [6] was 53100 ng·h/mL; in series [12] it was 12500 ng·h/mL. The AUC(0-inf) is 62900 ng·h/mL in series [7] and 12600 ng·h/mL in series [11]. Besides, on hERG, the inhibition at 10 µM is below 1%. Moreover, the remaining at 0.5 h in series [10], in series [15] and in [21] was above 99.9% throughout. Also, the “inhibition (INH)” value is listed as 17.4% on Cytochrome P450 2C19; below 1% at Cytochrome P450 2D6; 31.9% at Cytochrome P450 2C9; 1.17% against Cytochrome P450 1A2; below 1% against Cytochrome P450 3A4. In addition, the Cmax in series [13] is 5160 ng/mL. Moreover, the time of peak concentration (Tmax) in series [14] came to 3.67 h. Moreover, in [19], the Vd is 0.4 L/kg. Also, the clearance in series [22] is 1.33 mL/min/kg. The same compound displayed a bioavailability in series [23] of 85%.
On to `CC(C)(C)Nc1ncc(-c2ccccn2)cc1-c1nc2ccccc2o1`, for which the result in the series filed under Danio rerio [1] was Active.
With `Nc1cccc(-c2cnc(N)c(-c3nc4ccccc4o3)c2)c1`, the result in the series filed under Danio rerio [1] was inactive.
On to `CC(C)(C)Nc1ncc(-c2ccoc2)cc1-c1nc2ccccc2o1`, for which the result in the series filed under Danio rerio [1] was Active.
For `CC(C)(C)Nc1ncc(-c2cnn(CCC(=O)O)c2)cc1-c1nc2ccccc2o1`, the result in the series filed under Danio rerio [2] was Active.
Turning to `CC(C)(C)Nc1ncc(-c2ccsc2)cc1-c1nc2ccccc2o1`, the result in the series filed under Danio rerio [1] was Active.
For `Nc1cccc(-c2cnc(N3CCCCC3)c(-c3nc4ccccc4o3)c2)c1`, the outcome in the series listed under Danio rerio [1] was Active.
